From patent US8232070B2, “DNP63A gene and screening methods of anticancer agent by using it” (Seoul National University Industry Foundation, priority 2007, dated 2012)
Peptide text beside a SMILES is read from it. * marks the point of attachment. Cbz = O=C(OCc1ccccc1)*

Legend:
ΔNp63α [1] = test: ΔNp63α protein amount and stability in ME180 carcinoma cells after TNF-α treatment (cyclohexamide chase, FIG. 1); format: cell-based
Description: After TNF-α treatment for 16 hours, cyclohexamide which inhibit protein synthesis was added and the samples were obtained at the indicated time-points and observed for changes of protein stability. As a result, the protein degradation began after 4 hours of treatment with cyclohexamide.
Previously, ME180, ΔNp63α overexpressing carcinoma, was treated with TNF-α (tumor necrosis factor-alpha) which induces cell death. Also, the changes of the amount of ΔNp63α protein were observed. […] It is identified that such degradation of ΔNp63α was proceeded by specific mechanism, that is, by proteasome-mediated mechanism (FIG. 1). Protein degradation pathways could be usually classified in large into two groups, the first one is a degradation pathway by a protease after its polyubiquitination and movement to proteases, and the other one is a degradation pathway by a caspases.

ΔNp63α [2] = test: Intracellular location of GFP-fused ΔNp63α in transformed ME180 cells, fluorescence microscopy (FIG. 2); format: cell-based; settings: ME180 transformed with pEGFP-ΔNp63α
Description: The recombinant vector constructed by the present inventor had fused ΔNp63α next to pEGFP-C1. The advantage of GFP is to observe easily in microscopy because GFP emit the green light at the specific absorbance (Excitation maximum=488 nm; emission maximum=507 nm). […] GFP is inherently expressed all over the area of cell, however, it was identified that GFP expression was observed only in the nucleus after GFP fused with ΔNp63α.
As a signal of cell death induction, the intracellular location and expression patterns of ΔNp63α were observed. In detail, it was observed variation aspect and cell location of ΔNp63α with a time span, 0 hr, 1 hr, 2 hr and 4 hr with fluorescence microscope, after cloning ΔNp63α gene into the vector expressing Green Fluorescence Protein (GFP), expressing for a certain time by transformation into carcinoma cell, treating TNF-α which induce cell death, carcinoma cells being transformed and then the protein being expressed for a certain time. As a result, it was observed similar aspect of aggreasome, which looks like complex of preteasome, because ΔNp63α, which had been known to locate only in nucleus, moved from nucleus to cytoplasm about 2 hr after treatment of TNF-α (FIG. 2). […]

| Molecule | ΔNp63α protein degradation with proteasome inhibitor co-treatment (ΔNp63α [1]; MG132 20 nM together with cyclohexamide after TNF-α treatment for 16 hours) | amount of ΔNp63α protein after treatment (ΔNp63α [1]; ME180 cells, ΔNp63α overexpressing carcinoma) | time at which ΔNp63α protein degradation began after addition of cyclohexamide (ΔNp63α [1]; TNF-α treatment for 16 hours, then cyclohexamide added) [h] | change of ΔNp63α protein location after treatment (ΔNp63α [2]) | time at which ΔNp63α moved from nucleus to cytoplasm after treatment (ΔNp63α [2]; observed at 0 hr, 1 hr, 2 hr and 4 hr) |
| --- | --- | --- | --- | --- | --- |
| CC(C)C[C@@H](C=O)NC(=O)[C@H](CC(C)C)NC(=O)[C@H](CC(C)C)NC(=O)OCc1ccccc1 [MG132, reference compound] (Cbz-Leu-Leu-Leu-aldehyde) | wasn't degraded and stabilized even after 4 hours | – | – | – | – |
| TNF-α | – | decreased rapidly | 4 | from the nucleus to the cytoplasm | about 2 hr |
